These results are taken from patent US5358936A, “Anionic furanose derivatives, methods of making and using the same” (Gordon; Paul, priority 1991, dated 1994).

Where a name gives a salt, the structure may show the parent alone. Read-outs that look alike come from different tables or passages of the source. Some results are limits rather than exact numbers.

One may read the inhibition as the relative decrease from the control value, in per cent.

In data set [1] the test system is peritoneal neutrophils. Briefly: In vitro neutrophil chemotaxis toward zymosan-activated rat serum (Example 24). Format: cell-based, mouse. To be noted: for IC50: 6 h, read-out: ID50 (molar concentration that inhibited chemotaxis by 50 percent). On the procedure:
In vitro neutrophil chemotaxis studies were carried out by standard methods, as follows:
Mice were injected with complete Freund's adjuvant (CFA) and peritoneal cells, principally neutrophjls (>90 percent), were reproved from the mice 24 hours thereafter. Blind-well chemotactic chambers (Nucleopore Corp., Pleasanton, Calif.) were utilized.
Medium (RPMI 1640 plus 10 percent fetal calf serum) or medium plus 20 percent zymosan-activated rat serum (ZAS) was added to the lower compartment of each chamber. A nucleopore filter (8 μm pore size) was placed between compartments and 1×10^5 peritoneal neutrophils (above) suspended in medium were placed in the upper compartment. Chambers were incubated for six hours, after which time the filters were removed and stained with Giemsa stain. The number of cells on the lower surface of the filter was counted under a microscope. Treatment groups were assayed in duplicate.
The studies were carried out more specifically as follows:
Zymosan (Sigma Chemical Co., St. Louis, Mo.) was mixed with rat serum for one hour at 37° C. at 1 milligram (mg)/ml. The resulting chemoattractant composition was filtered, aliquotted and stored frozen at -70° C. prior to use.
The above chemoattractant composition was used as a 20 percent v/v solution in medium.
The chemotaxis chambers were arranged as follows:
The chambers were incubated at 37° C. for six hours, after which the chambers were dismantled, and the filters removed and treated as follows:
a) The filters were immersed in Giemsa stain diluted 1:50 for 30-45 minutes.
b) The stained filters were rinsed gently in distilled water for 3-5 minutes.
c) The stained, rinsed filters were air dried without blotting.
Several compounds described herein and control compounds ("drug", above) were examined at various concentrations, in duplicate. The molar concentration of a drug that inhibited the observed chemotaxis by 50 percent, defined as the ID50 value, was determined as shown below.

In data set [2] the test system is rat paw. Particulars: in vivo; cited from earlier work.
Data set [3] deals with rat paw. The data set can be described thus: Post-ischemic reperfusion paw swelling (Example 22). Format: in vivo, Sprague Dawley male rats. Particulars: for Swelling change as a result of treatment: 30 minutes; for Post-ischemic reperfusion 30 minute paw swelling, Mn ± SE: P < 0.02. The text has this: This important disease model is used to evaluate aspects of tissue injury that occur in heart attack, or myocardial infarction, and stroke. Under these conditions, a significant period of injury can occur after blood flow has been restored, during the period of reperfusion.
To produce ischemia, blood flow to the left hind foot was largely interrupted by application of a tourniquet made up of two size 18 rubber bands wound eight times around the leg just behind the heel. […] Both application and removal of tourniquet were carried out under ether anesthesia. Injury was equated with organ swelling, which was assayed by measurement of the dorsoventral foot diameter with a Schnelltaster caliper, just before application of the tourniquet and at various times following tourniquet removal, during the reperfusion period.
Rats employed were Sprague Dawley males, weighing 240-280 grams. Drug comparisons were made here employing measurements 30 minutes into the reperfusion period. The widely studied drug allopurinol, a xanthine oxidase inhibitor and a free radical scavenging agent, used in the treatment of gout, and widely used to suppress experimental post-ischemic reperfusion injury was used as an experimental treatment standard. In studies below, allopurinol and all new drugs were given intraperitoneally 45-60 minutes prior to application of the tourniquet. Data are reported as the mean swelling (Mn)±standard error (SE). […] Group n is 5 or 6.
In another study, drug comparisons were made at various times after the reperfusion period. In this study, control and drug treatment groups were as above.

The subject of data set [4] is platelet aggregation. The data set can be described thus: Mouse tail bleeding time (Example 31 B). Format: in vivo. Particulars: 100 mg/kg intraperitoneal. How it is done: A study of mouse tail bleeding time, which is an in vivo model of platelet aggregation and thrombosis was also conducted. In this widely employed model, bleeding was induced by a standardized transection of the tail tip and subsequent bleeding time was determined after vertical immersion of the tails in isotonic saline at 37° C. for thirty seconds.
Two compounds of the invention, Compound III and Compound VIII, were assessed as compared with aspirin, in another study of mouse tail bleeding time. In this study, the mice were housed in a standard animal room rather than in a noisy small animal isolator. Also, all three drugs were administered by an intraperitoneal route, rather than a subcutaneous route for Compound III and an intraperitoneal route for aspirin.

The subject of data set [5] is stomach ulcers. Briefly: Gastric ulcers in rats with corona virus infection treated with indomethacin (Example 26). Format: in vivo, rat. Particulars: indomethacin 30 mg/kg oral. The text has this: Corona virus is a non-lethal upper respiratory viral pathogen that not infrequently infects rat colonies. It is a type of rodent coryza or catarrh, the equivalent of a disease that falls somewhere between human influenza and a severe common cold. The animals of this study suffered from this condition, a circumstance which was evident by observation, and which was confirmed by virological diagnosis at the Biological Resources Laboratory of the University of Illinois at Chicago. Since stress is a common component of peptic ulcer development in both animals and man, it was concluded that this feature of the status of these experimental animals rendered them appropriate for an ulcer study.
In this study, animals were not food deprived and were divided into treatment groups such that 15 rats received 30 mg/kg indomethacin alone (in water by oral gavage), 14 rats received indomethacin plus an injection of 25 mg/kg cimetidine subcutaneously, and 7 rats received indomethacin plus subcutaneous injection of 17.5 mg/kg of Compound III.
All animals were sacrificed by ether euthanasia 24 hours later and their stomachs evaluated for ulcer pathology. In this study ulcers were not hemorrhagic. Results are shown below as the average number of stomach ulcers per stomach.

Data set [6] is described as follows: Dissolution and buffering of suspensions, HCl titration (Example 16).
Excerpt: Note that the term "apparent pK" in this context is meant to encompass the maximization of buffering that come both from solid-state dissolution and its titration as solute.
Setting [7] is: Mus musculus, Neutrophil, read-out: Percent Inhibition of chemotaxis.
[8] abbreviates: Mus musculus, Neutrophil, 20 percent zymosan-activated rat serum, six hours, 37° C.
Setting [9] is: Mus musculus, Neutrophil, dose 0.1 μg/ml, read-out: Percent Inhibition of chemotaxis.
Where [10] appears, read: Mus musculus, Neutrophil, dose 1.0 μg/ml, read-out: Percent Inhibition of chemotaxis.
Setting [11] is: Mus musculus, Neutrophil, dose 10.0 μg/ml, read-out: Percent Inhibition of chemotaxis.

For the compound `O=S(=O)(O)OC[C@H]1O[C@H](OS(=O)(=O)O)[C@H](O)[C@@H](OS(=O)(=O)O)[C@@H]1O` [Compound VII, 1,3,6-Tri-O-sulfo-α-D-glucopyranose, tripotassium salt, reference compound], the IC50 in data set [1] (Mus musculus, Neutrophil) was < 100 µM. For the same compound, in data set [1] (setting [7]), the inhibition at 0.1 µg/mL was determined as 8%, the inhibition at 1 µg/mL was found to be 23% and the inhibition at 10 µg/mL stood at 29%.
As to `CCC1(CC)O[C@H]2O[C@H]([C@@H](COS(=O)(=O)O)OS(=O)(=O)O)[C@H](OS(=O)(=O)O)[C@H]2O1` [Compound V, 1,2-O-(3-Pentylidene)-3,5,6-tri-O-sulfo-α-D-glucofuranose, tripotassium salt], the IC50 in data set [1] (setting [8]) worked out at 2 µM. For the same compound, the inhibition at 0.1 µg/mL in data set [1] (setting [9]) is -8%. For the same compound, in data set [1] (setting [10]), the inhibition at 1 µg/mL is 62%. In data set [1] (setting [11]), the inhibition at 10 µg/mL amounted to 101%.
Turning to `C[C@@H]1C[C@H]2[C@@H]3CCC4=CC(=O)C=C[C@]4(C)[C@@]3(F)[C@@H](O)C[C@]2(C)[C@@]1(O)C(=O)CO` [Dexamethasone], the “effect on edema that develops following removal of the tourniquet, in words” value (“effect” for short) in data set [2] is on record as “effective only when administered more than three hours in advance”.
With `Oc1ncnc2[nH]ncc12` [Allopurinol, reference compound], the “Swelling change as a result of treatment” value in data set [3] (study B, i.p., Compound III 0.2 mg/kg, allopurinol 20 mg/kg) is given as -35%. In data set [3] (study B, i.p., Compound III 0.2 mg/kg, allopurinol 20 mg/kg, control 20.5 ± 0.76), the “Post-ischemic reperfusion 30 minute paw swelling, Mn ± SE” value is listed as 13.3 ± 0.56 0.1 mm. For the same compound, in data set [2], the “effect” value is reported as “suppress the edema” and the “near toxic level at which allopurinol is utilized in reperfusion injury” value is 20 to 30 mg/kg.
With `C[C@]12C=CC(=O)C=C1CC[C@@H]1[C@@H]2C(=O)C[C@@]2(C)[C@H]1CC[C@]2(O)C(=O)CO` [Prednisone, reference compound], the IC50 in data set [1] (setting [8]) is > 50 µM. Moreover, the inhibition at 0.1 µg/mL in data set [1] (setting [9]) was 15.5%. In data set [1] (setting [10]), the inhibition at 1 µg/mL came to 16%. Also, the inhibition at 10 µg/mL in data set [1] (setting [11]) turned out to be 20%.
As for `CC(=O)Nc1ccc(C=Cc2ccc(N=C=S)cc2S(=O)(=O)O)c(S(=O)(=O)O)c1` [SITS, 4-acetamido-4'-isothiocyano-stilbene-2,2'-disulfonate, reference compound], the IC50 in data set [1] (Mus musculus, Neutrophil) is > 20 µM. For the same compound, in data set [1] (setting [7]), the inhibition at 0.1 µg/mL was 18.5%, the inhibition at 1 µg/mL was -12.5% and the inhibition at 10 µg/mL was determined as 48.5%.
On to `CC(=O)Oc1ccccc1C(=O)O` [Aspirin, reference compound], for which the “% Increase in bleeding time” value in data set [4] was determined as 97%. In addition, in data set [4] (control 37.0 ± 5.25), the “Mouse Tail Bleeding Time” value came to 72.88 ± 10.9 s.
As to `O=S(=O)(O)OC[C@@H](OS(=O)(=O)O)[C@H]1O[C@H](O)[C@H](O)[C@H]1OS(=O)(=O)O` [Compound II, 3,5,6-Tri-O-sulfo-α-D-glucofuranose, tripotassium salt], in data set [1] (Mus musculus, Neutrophil), the IC50 came out at 30 µM. Also, in data set [1] (setting [7]), the inhibition at 0.1 µg/mL is 2.5%, the inhibition at 1 µg/mL turned out to be 45.5% and the inhibition at 10 µg/mL stood at 48.5%.
In the case of `O=C(O)Cc1ccccc1Nc1c(Cl)cccc1Cl` [diclofenac], in data set [2], the “effect” value is “not effective at any time”.
As to `CCCCC1(CCCC)O[C@H]2O[C@H]([C@@H](COS(=O)(=O)O)OS(=O)(=O)O)[C@H](OS(=O)(=O)O)[C@H]2O1` [Compound IV, 1,2-O-(5-Nonylidene)-3,5,6-tri-O-sulfo-α-D-glucofuranose, tripotassium salt], in data set [1] (setting [8]), the IC50 is > 10 µM. The inhibition at 1 µg/mL in data set [1] (setting [10]) is 44%. In addition, in data set [1] (dose 1.0 μg/ml, tripotassium salt), the “Percent Inhibition of chemotaxis” value stood at 28.5%. The “Post-ischemic reperfusion 30 minute paw swelling, Mn ± SE” value in data set [3] (study D, 0.2 mg/kg i.p., control 11.4 ± 0.51) is 21.2 ± 2.25 0.1 mm. Moreover, the “Swelling change as a result of treatment” value in data set [3] (study D, 0.2 mg/kg i.p., edema enhancement) was “+86%”.
Regarding `CN/C(=N/CCSCc1nc[nH]c1C)NC#N` [Cimetidine, reference compound], the “Percent Inhibition of ulcer frequency” value in data set [5] (cimetidine 25 mg/kg s.c. or Compound III 17.5 mg/kg s.c.) is given as 58%. The “Ulcer Frequency per stomach, Mn ± SE” value in data set [5] (cimetidine 25 mg/kg s.c. or Compound III 17.5 mg/kg s.c. where given, P<0.02) came to 1.07 ± 0.25 Per Stomach.
For the compound `[OH][Al]([OH])[OH]` [aluminum trihydroxide, reference compound], in data set [6] (50 mg in 20 ml distilled water, initial pH 4.44 (aluminum trihydroxide), 4.91 (sucralfate), 4.23 (Compound III:Al), water alone 0.30), the “HCl needed to lower pH of suspension to below pH 2.00” value is reported as 0.90 meq. The “buffering action, in words” value in data set [6] (HCl titration) is listed as “only minor buffering power relative to distilled H2 O, but no pK”.
In the case of `CCCCC[C@H](O)/C=C/[C@H]1[C@H](O)CC(=O)[C@@H]1C/C=C\CCCC(=O)O` [PGE2, Prostaglandin E2, reference compound], the IC50 in data set [1] (setting [8]) was 0.1 µM. In data set [1] (Mus musculus, Neutrophil, dose 0.01 μg/ml, read-out: Percent Inhibition of chemotaxis), the inhibition at 0.01 µg/mL was found to be 71%. Also, the inhibition at 0.1 µg/mL in data set [1] (setting [9]) was determined as 91.5%. Besides, the inhibition at 0.2 µg/mL in data set [1] (Mus musculus, Neutrophil, dose 0.2 μg/ml, read-out: Percent Inhibition of chemotaxis) stood at 71.5%. In addition, the “relative activity in inhibiting neutrophil chemotaxis, in words” value in data set [1] (in vitro) is recorded as “about equally as active as Compound III”.
